Results reported in patent publication US9926529B2, “Derivation of neural stem cells and dopaminergic neurons from human pluripotent stem cells” (International Stem Cell Corporation, priority 2012, dated 2018).
Structures can show the parent of a compound that is named as a salt. Where two headings read alike, the source gives them in different places.

Test system: hPSC-NSCs
Assay: RT-PCR expression of dopamine neuron genes in hPSC-NSCs treated with small molecule hits
Type: cell-based, human
Settings: for fold induction at 2.5 µM: Homo sapiens, Neuron, 336 h
Procedure: The method specifically involved treating both hESC-H9-NSCs (Invitrogen) and hPSC-NSCs with Purmorphamine (2 μM) and FGF8 (100 ng/mL) in NB medium [NeuroBasal medium, 1× GlutaMAX, 1× N2/B27 Supplement (Invitrogen)] for 7 days. After 7 days of Purmorphamine and FGF8 treatment, the NSCs were dissociated with Accutase (Sigma) and plated 20,000 cells/mL into Matrigel coated 96 well plates and treated with small molecule library (Torcris 1120 Biologically Active Compounds) at 2.5 μM final concentration for two weeks (FIG. 6A). Two weeks after treatment with small molecules, all wells were visually observed and scored based on neurite density and dopamine release. For measuring neurite density, cells were fixed with 4% paraformaldehyde and phase contrast images were acquired using Cellavista Cell Imaging System (Roche Applied Science) from randomly selected fields. Neurite density was measured using the Cellavista density software image processing program. Each experimental condition was done in duplicate wells, and at least three independent experiments were conducted to acquire the final results.
Conditioned medium from the top neurite inducers (Table 1) (wells containing the highest density of neurites compare to control 0.1% DMSO treated) were collected and analyzed using a dopamine ELISA assay (Cosmo Bio). Conditioned medium was collected from samples containing 50,000 cells per well and centrifuged at 3000 RPM to remove cell debris. Supernatant was then collected and analyzed for quantitative determination of dopamine using a commercial dopamine ELISA assay kit (CusaCosmo Bio). Data analysis was performed using the microtiter plate reader (BIO-TEK Synergy 2). The results presented are from three independent experiments (n=3) and represented as mean±standard error of mean (s.e.m.) and statistical analysis was performed using the two-tailed Student's t-test with a confidence level of 95% (α=0.05) with statistical significance of P<0.05. Additionally, total RNA from each well were collected and analyze by RT-PCR for expression of TuJ1, MAP2, TH, GRK2, EN1, DAT, AADC, PAX2, NURR1, PITX3 and LMX1B from hPSC-NSCs (Table 2). […] Analysis of the ELISA data indicated the top small molecule neurite inducers produced higher levels of dopamine than control non-treated cells (1.5 ng/mL). […] The percentages of TH positive cells produced by chemical treatment with Kenpaullone (33%), Guggulsterone (35%), Kynurenic Acid (19%), Immedthridine Dihydrobromide (21%), and Dimaprit Dihydrochloride (18%) were higher than 15% of TH positive cells obtained from hPSC-NSCs differentiated for ≥1 month using a standard dopaminergic differentiation medium (BDNF 20 ng/mL, GDNF 20 ng/mL, cAMP 200 μM, Abscorbic Acid 200 μM, TGFβ3 2 ng/mL and DAPT).
Total RNA from at least triplicate samples with around 1 million cells each was isolated using either QIAsymphony automatic purification system or RNeasy Plus Mini kit, according to manufacturer's instructions (Qiagen). Total RNA was used for reverse transcription with the iScript cDNA synthesis kit (Biorad) and Px2 Thermal Cycler (Thermo Scientific). To analyze gene expression, PCR reactions were performed in duplicate using 1/25-th of the cDNA per reaction and the QuantiTect Primer Assay and Quantitest SYBR Green master mix (Qiagen). qPCR was performed using the Rotor-Gene Q (Qiagen) 5 min at 95° C., 5 s at 92° C., and 20 s at 60° C. for 37 cycles followed by melt to check the specificity of the amplicons from 50 to 99° C. raising by 1° C. each step. Relative quantification was performed against a standard curve and quantified values were normalized against the input determined by PPIG. The primers used for the analysis are listed in Supplementary Table S1. […]

[1] = hPSC-NSCs primed 7 days with Purmorphamine and FGF8, small molecule 2.5 μM for two weeks
[2] = hPSC-NSCs primed 7 days with Purmorphamine and FGF8, small molecule 2.5 μM for two weeks, read-out: DDC (AADC) expression by RT-PCR
[3] = hPSC-NSCs primed 7 days with Purmorphamine and FGF8, small molecule 2.5 μM for two weeks, read-out: EN1 expression by RT-PCR
[4] = hPSC-NSCs primed 7 days with Purmorphamine and FGF8, small molecule 2.5 μM for two weeks, read-out: KCNJ6 expression by RT-PCR
[5] = hPSC-NSCs primed 7 days with Purmorphamine and FGF8, small molecule 2.5 μM for two weeks, read-out: LMX1B expression by RT-PCR
[6] = hPSC-NSCs primed 7 days with Purmorphamine and FGF8, small molecule 2.5 μM for two weeks, read-out: MAP2 expression by RT-PCR
[7] = hPSC-NSCs primed 7 days with Purmorphamine and FGF8, small molecule 2.5 μM for two weeks, read-out: NR4A2 (NURR1) expression by RT-PCR
[8] = hPSC-NSCs primed 7 days with Purmorphamine and FGF8, small molecule 2.5 μM for two weeks, read-out: PITX3 expression by RT-PCR
[9] = hPSC-NSCs primed 7 days with Purmorphamine and FGF8, small molecule 2.5 μM for two weeks, read-out: Pax2 expression by RT-PCR
[10] = hPSC-NSCs primed 7 days with Purmorphamine and FGF8, small molecule 2.5 μM for two weeks, read-out: TH1 expression by RT-PCR
[11] = hPSC-NSCs primed 7 days with Purmorphamine and FGF8, small molecule 2.5 μM for two weeks, read-out: Tubb3 expression by RT-PCR
[12] = hPSC-NSCs primed 7 days with Purmorphamine and FGF8, small molecule 2.5 μM for two weeks, read-out: SLC6A3 (DAT) expression by RT-PCR

Row | Compound | DDC (AADC) expression by RT-PCR [1] | EN1 expression by RT-PCR [1] | KCNJ6 (GRK2) expression by RT-PCR [1] | LMX1B expression by RT-PCR [1] | MAP2 expression by RT-PCR [1] | NR4A2 (NURR1) expression by RT-PCR [1] | PITX3 expression by RT-PCR [1] | Pax2 expression by RT-PCR [1] | SLC6A3 (DAT) expression by RT-PCR [1] | TH1 expression by RT-PCR [1] | Tubb3 expression by RT-PCR [1] | further results
1 | Cc1cc(C(=O)O)sc1C(N)C(=O)O (stereo not drawn) [3-MATIDA] | 80.55 | 7.3 | 1.21 | 2.99 | 10.7 | 3.06 | 0.46 | 0.65 | 1.42 | 5.1 | 3.74 | 
2 | Br.CCCN(CCC)C1CCc2cccc(O)c2C1 (stereo not drawn) [8-Hydroxy-DPAT hydrobromide] | 124.29 | 11.69 | 0.9 | 5.42 | 14.43 | 7.66 |  | 1.25 | 19.9 | 7.32 | 7.8 | 
3 | N[C@@H]1CCN(O)C1=O [(R)-(+)-HA-966] | 104.03 | 7.26 | 1.02 | 3.94 | 10.66 | 3.91 | 0.23 | 4.7 | 26.39 | 6.75 | 5.61 | 
4 | Cc1nnc2ccc(-c3cccc(C(F)(F)F)c3)nn12 [CL 218872] | 8.73 | 5.69 | 0.43 | 2.52 | 8.94 | 1.79 | 0.08 | 0.09 | 0.98 | 13.89 | 4.3 | 
5 | Nc1nc(Nc2ccccc2)nc2c1ncn2[C@@H]1O[C@H](CO)[C@@H](O)[C@H]1O [CV 1808] | 16.69 | 5.56 | 0.36 |  | 8.66 | 1.56 | 0.7 |  | 0.94 | 12.51 | 3.86 | 
6 | CCCC[C@@H](C=O)NC(=O)[C@H](CC(C)C)NC(=O)OCc1ccccc1 [Calpeptin] |  |  |  |  |  |  |  |  |  |  |  | fold induction at 2.5 µM (read-out: SLC6A3 (DAT) expression by RT-PCR): 6.57; fold induction at 2.5 µM [2]: 295; fold induction at 2.5 µM [3]: 6.93; fold induction at 2.5 µM [4]: 4.43; fold induction at 2.5 µM [5]: 2.9; fold induction at 2.5 µM [6]: 12.9; fold induction at 2.5 µM [7]: 2.45; fold induction at 2.5 µM [8]: 0.37; fold induction at 2.5 µM [9]: 3.54; fold induction at 2.5 µM [10]: 15.2; fold induction at 2.5 µM [11]: 6.1
7 | CC(C)(C)c1cc(C(=O)/C=C/c2ccc(C(=O)O)cc2)cc(C(C)(C)C)c1 [Ch 55] | 22.86 | 11.61 | 0.25 | 1.54 | 5.25 | 77.93 | 0.13 | 0.06 | 0.11 | 1.19 | 3.48 | 
8 | O=S(=O)(c1cccc2cnccc12)N1CCCNCC1 [Fasudil hydrochloride] |  |  |  |  |  |  |  |  |  |  |  | fold induction at 2.5 µM [2]: 32.4; fold induction at 2.5 µM [3]: 8.69; fold induction at 2.5 µM [4]: 1.57; fold induction at 2.5 µM [5]: 3.5; fold induction at 2.5 µM [6]: 11.6; fold induction at 2.5 µM [7]: 4.53; fold induction at 2.5 µM [8]: 0.27; fold induction at 2.5 µM [9]: 0.27; fold induction at 2.5 µM [12]: 2.79; fold induction at 2.5 µM [10]: 5.53; fold induction at 2.5 µM [11]: 5.67
9 | O=C(O)Cc1cccnc1C(=O)O [Homoquinolinic acid] | 20.19 | 4.83 | 1.76 | 2.32 | 10.03 | 1.99 | 0.4 | 0.05 | 19.18 | 10.77 | 2.95 | 
10 | Cl.O=C(O)COc1ccc(OCCNC[C@H](O)COc2ccccc2)cc1 [ICI 215,001 hydrochloride] | 29.34 | 8.52 | 1.48 | 4.79 | 11.2 | 2.88 |  | 39.43 | 1.77 | 6.04 | 5.54 | 
11 | N[C@@H](CS(=O)O)C(=O)O [L-Cysteinesulfinic acid] | 17.27 | 5.76 | 3.02 | 2.66 | 9.52 | 2.02 |  | 0.22 | 1.54 | 7.84 | 3.41 | 
12 | c1ccc(-c2[nH]ncc2-c2ccnc3ccccc23)nc1 [LY 364947] | 64.48 | 7.42 | 1.09 |  | 10.48 | 3.01 |  |  | 5.08 | 5.23 | 4.23 | 
13 | O=C1N(c2ccccc2)c2ccccc2C1(Cc1ccncc1)Cc1ccncc1 [Linopirdine dihydrochloride] |  |  |  |  |  |  |  |  |  |  |  | fold induction at 2.5 µM [2]: 7.02; fold induction at 2.5 µM [3]: 4.06; fold induction at 2.5 µM [4]: 0.16; fold induction at 2.5 µM [5]: 2.84; fold induction at 2.5 µM [6]: 7.02; fold induction at 2.5 µM [7]: 0.69; fold induction at 2.5 µM [8]: 0.26; fold induction at 2.5 µM [9]: 0.3; fold induction at 2.5 µM [12]: 0.28; fold induction at 2.5 µM [10]: 8.61; fold induction at 2.5 µM [11]: 3.74
